According to patent US7799821B2, “Therapeutic compounds” (Allergan, Inc., priority 2004, dated 2010):
Where two headings read alike, the source gives them in different places.

How the values were obtained:
human EP2 receptors = target: T1, human EP2 receptors (Homo sapiens, UniProt P43116); test: Competition radioligand binding ([3H]PGE2), EP2; settings: unit inferred; read-out: EP2 data Ki
T1 construct: expressed in transfected cells; host or cells: HEK 293
Method: Competition binding experiments were performed in a medium containing Hank's balanced salt solution, […], membranes (˜60 μg protein) or 2×10^5 cells from HEK 293 cells stably expressing human EP2 receptors, [^3H]PGE2 (10 nM) and various concentrations of test compounds in a total volume of 300 μl. Reaction mixtures were incubated at 23° C. for 60 min, and were filtered over Whatman GF/B filters under vacuum. Filters were washed three times with 5 ml ice-cold buffer containing 50 mM Tris/HCl (pH 7.3). Non-specific binding was estimated in the presence of excess unlabeled PGE2 (10 μM). Binding data fitted to the binding model for a single class of binding sites, using nonlinear regression analysis. IC50 values thus obtained were converted to Ki using the equation of Ki=(IC50/(1+[L]/KD) where [L] represents PGE2 concentration (10 nM) and KD the dissociation constant for [^3H]PGE2 at human EP2 receptors (40 nM).
(§1) HEK-293 cells stably expressing the human or feline FP receptor, or EP1, EP2, or EP4 receptors were washed with TME buffer, scraped from the bottom of the flasks, and homogenized for 30 sec using a Brinkman PT 10/35 polytron. TME buffer was added to achieve a final 40 ml volume in the centrifuge tubes (the composition of TME is 100 mM TRIS base, 20 mM MgCl2, […]; 10N HCl is added to achieve a pH of 7.4).
(§2) The cell homogenate was centrifuged at 19000 r.p.m. for 20 min at 4° C. using a Beckman Ti-60 rotor. The resultant pellet was resuspended in TME buffer to give a final 1 mg/ml protein concentration, as determined by Biorad assay. Radioligand binding competition assays vs. [^3H-]17 —phenyl PGF2α (5 nM) were performed in a 100 μl volume for 60 min. Binding reactions were started by adding plasma membrane fraction. The reaction was terminated by the addition of 4 ml ice-cold TRIS-HCl buffer and rapid filtration through glass fiber GF/B filters using a Brandel cell harvester. The filters were washed 3 times with ice-cold buffer and oven dried for one hour.
(§3) [^3H-] PGE2 (specific activity 180 Ci mmol) was used as the radioligand for EP receptors. [^3H] 17-phenyl PGF2α was employed for FP receptor binding studies. Binding studies employing EP1, EP2, EP4 and FP receptors were performed in duplicate in at least three separate experiments. A 200 μl assay volume was used. Incubations were for 60 min at 25° C. and were terminated by the addition of 4 ml of ice-cold 50 mM TRIS-HCl, followed by rapid filtration through Whatman GF/B filters and three additional 4 ml washes in a cell harvester (Brandel). Competition studies were performed using a final concentration of 5 nM [^3H]—PGE2, or 5 nM [^3H] 17-phenyl PGF2α and non-specific binding determined with 10^−5M of unlabeled PGE2, or 17-phenyl PGF2α, according to receptor subtype studied.

hEP4/Gqs5 = target: T2, hEP4/Gqs5 (Homo sapiens, UniProt P35408); test: FLIPR calcium signal, hEP4; format: cell-based; settings: unit inferred; read-out: EP4 data flipr EC50
T2 construct: expressed in transfected cells; host or cells: HEK-293(EBNA)
Method: (§4) HEK-293(EBNA) cells, stably expressing one type or subtype of recombinant human prostaglandin receptors (prostaglandin receptors expressed: hDP/Gqs5; hEP1; hEP2/Gqs5; hEP3A/Gqi5; hEP4/Gqs5; hFP; hIP; hTP), were cultured in 100 mm culture dishes in high-glucose DMEM medium containing 10% fetal bovine serum, 2 mM 1-glutamine, 250 μg/ml geneticin (G418) and 200 μg/ml hygromycin B as selection markers, and 100 units/ml penicillin G, 100 μg/ml streptomycin and 0.25 μg/ml amphotericin B. • (b) Calcium Signal Studies on the FLIPR™
(§5) Cells were seeded at a density of 5×10^4 cells per well in Biocoat® Poly-D-lysine-coated black-wall, clear-bottom 96-well plates (Becton-Dickinson) and allowed to attach overnight in an incubator at 37° C. Cells were then washed two times with HBSS-HEPES buffer (Hanks Balanced Salt Solution without bicarbonate and phenol red, 20 mM HEPES, pH 7.4) using a Denley Cellwash plate washer (Labsystems). After 45 minutes of dye-loading in the dark, using the calcium-sensitive dye Fluo-4 AM at a final concentration of 2 μM, plates were washed four times with HBSS-HEPES buffer to remove excess dye leaving 100 μl in each well. Plates were re-equilibrated to 37° C. for a few minutes.
(§6) Cells were excited with an Argon laser at 488 nm, and emission was measured through a 510-570 nm bandwidth emission filter (FLIPR™, Molecular Devices, Sunnyvale, Calif.). Drug solution was added in a 50 μl volume to each well to give the desired final concentration. The peak increase in fluorescence intensity was recorded for each well. On each plate, four wells each served as negative (HBSS-HEPES buffer) and positive controls (standard agonists: BW245C (hDP); PGE2 (hEP1; hEP2/Gqs5; hEP3A/Gqi5; hEP4/Gqs5); PGF2α (hFP); carbacyclin (hIP); U-46619 (hTP), depending on receptor). The peak fluorescence change in each drug-containing well was then expressed relative to the controls.
(§7) Compounds were tested in a high-throughput (HTS) or concentration-response (CoRe) format. In the HTS format, forty-four compounds per plate were examined in duplicates at a concentration of 10^−5 M. To generate concentration-response curves, four compounds per plate were tested in duplicates in a concentration range between 10^−5 and 10^−11 M. The duplicate values were averaged. In either, HTS or CoRe format each compound was tested on at least 3 separate plates using cells from different passages to give an n≧3.

EP4 receptors = target: T3, EP4 receptors (Homo sapiens, UniProt P35408); test: Radioligand binding ([3H]PGE2), EP4; settings: unit inferred; read-out: EP4 data KI
T3 construct: expressed in transfected cells; host or cells: HEK-293
Method: as §1, §2, §3

hDP/Gqs5 = target: T4, hDP/Gqs5 (Homo sapiens, UniProt Q13258); test: FLIPR calcium signal, hDP; format: cell-based
T4 construct: expressed in transfected cells; host or cells: HEK-293(EBNA)
T4 sequence (Q13258 1-359): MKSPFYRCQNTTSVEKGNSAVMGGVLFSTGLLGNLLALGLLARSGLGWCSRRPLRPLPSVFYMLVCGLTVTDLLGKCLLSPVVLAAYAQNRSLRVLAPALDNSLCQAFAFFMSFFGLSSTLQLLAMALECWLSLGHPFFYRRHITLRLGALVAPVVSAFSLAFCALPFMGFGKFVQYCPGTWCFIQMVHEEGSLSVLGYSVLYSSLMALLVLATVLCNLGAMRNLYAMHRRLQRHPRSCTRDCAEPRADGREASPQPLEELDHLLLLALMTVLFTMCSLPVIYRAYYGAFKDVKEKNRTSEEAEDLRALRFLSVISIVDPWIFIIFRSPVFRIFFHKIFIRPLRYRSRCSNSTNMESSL
Method: as §4, §5, §6, §7

hEP2/Gqs5 = target: T5, hEP2/Gqs5 (Homo sapiens, UniProt P43116); test: FLIPR calcium signal, hEP2; format: cell-based
T5 construct: expressed in transfected cells; host or cells: HEK-293(EBNA)
Method: as §4, §5, §6, §7

[1] = target: T6, HEK-EBNA cells expressing a PG EP2 receptor subtype (Homo sapiens, UniProt P43116); test: cAMP assay, EP2; format: cell-based; settings: unit inferred; read-out: EP2 data cAMP EC50
T6 construct: expressed in transfected cells; host or cells: HEK-EBNA
Method: A 384-well drug plate was prepared to contain 6 test compounds, PGE2 and cAMP in 16 serial dilutions in triplicate, using a Biomek station. HEK-EBNA cells expressing a target PG receptor subtype (EP2 or EP4) were suspended in a stimulation buffer (HBSS, 0.1% BSA, 0.5 mM IBMX and 5 mM HEPES, pH 7.4) in a density of 10^4 cells/5 μl. The reaction was initiated by mixing 5 μL drug dilutions with 5 μl of HEK-EBNA cells in a well, carried out for 30 min at room temperature, and followed by the addition of 5 μl anti-cAMP acceptor beads in the control buffer with Tween-20 (25 mM NaCl, 0.03% Tween-20, 5 mM HEPES, pH7.4). After 30 min in the dark at room temperature, the mixtures were incubated with 15 μl biotinylated-cAMP/strepavidin donor beads in Lysis/Detection buffer (0.1% BSA, 0.3% Tween-20 and 5 mM HEPES, pH7.4) for 45 min at the room temperature. Fluorescence changes were read using a Fusion-alpha HT microplate reader.

hTP = target: T7, hTP (Homo sapiens, UniProt P21731); test: FLIPR calcium signal, hTP; format: cell-based; settings: read-out: FUNCTIONAL Ca2+ EC50 HTP
T7 construct: expressed in transfected cells; host or cells: HEK-293(EBNA)
T7 sequence (P21731 1-343): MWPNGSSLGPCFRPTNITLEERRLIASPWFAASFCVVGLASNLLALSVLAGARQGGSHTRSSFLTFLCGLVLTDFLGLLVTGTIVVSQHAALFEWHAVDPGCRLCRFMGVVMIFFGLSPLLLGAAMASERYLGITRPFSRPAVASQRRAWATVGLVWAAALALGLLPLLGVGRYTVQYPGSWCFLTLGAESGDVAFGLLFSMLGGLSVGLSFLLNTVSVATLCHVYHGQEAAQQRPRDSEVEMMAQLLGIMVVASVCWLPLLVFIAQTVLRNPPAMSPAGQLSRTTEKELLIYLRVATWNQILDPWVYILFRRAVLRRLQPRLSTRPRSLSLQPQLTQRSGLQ
Method: as §4, §5, §6, §7

hEP3A/Gqi5 = target: T8, hEP3A/Gqi5 (Homo sapiens, UniProt P43115); test: FLIPR calcium signal, hEP3A; format: cell-based; settings: read-out: Other Receptors EC50 hEP3A
T8 construct: expressed in transfected cells; host or cells: HEK-293(EBNA)
T8 sequence (P43115 1-390): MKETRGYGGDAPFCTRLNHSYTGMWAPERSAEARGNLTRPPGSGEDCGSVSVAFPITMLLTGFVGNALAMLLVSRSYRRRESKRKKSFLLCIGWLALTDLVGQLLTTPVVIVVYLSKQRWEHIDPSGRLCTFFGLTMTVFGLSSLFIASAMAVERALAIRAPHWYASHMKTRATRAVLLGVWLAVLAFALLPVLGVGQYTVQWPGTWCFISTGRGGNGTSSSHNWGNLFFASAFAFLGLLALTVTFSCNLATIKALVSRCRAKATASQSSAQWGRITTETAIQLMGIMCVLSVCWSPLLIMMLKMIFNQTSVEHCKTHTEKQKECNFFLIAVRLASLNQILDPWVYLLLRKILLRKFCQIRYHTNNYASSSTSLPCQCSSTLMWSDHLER
Method: as §4, §5, §6, §7

[2] = read-out: Other Receptors EC50 hDP
[3] = unit inferred, other columns of the table in nM, read-out: EP2 data flipr EC50

T3 sequence (P35408 whole entry): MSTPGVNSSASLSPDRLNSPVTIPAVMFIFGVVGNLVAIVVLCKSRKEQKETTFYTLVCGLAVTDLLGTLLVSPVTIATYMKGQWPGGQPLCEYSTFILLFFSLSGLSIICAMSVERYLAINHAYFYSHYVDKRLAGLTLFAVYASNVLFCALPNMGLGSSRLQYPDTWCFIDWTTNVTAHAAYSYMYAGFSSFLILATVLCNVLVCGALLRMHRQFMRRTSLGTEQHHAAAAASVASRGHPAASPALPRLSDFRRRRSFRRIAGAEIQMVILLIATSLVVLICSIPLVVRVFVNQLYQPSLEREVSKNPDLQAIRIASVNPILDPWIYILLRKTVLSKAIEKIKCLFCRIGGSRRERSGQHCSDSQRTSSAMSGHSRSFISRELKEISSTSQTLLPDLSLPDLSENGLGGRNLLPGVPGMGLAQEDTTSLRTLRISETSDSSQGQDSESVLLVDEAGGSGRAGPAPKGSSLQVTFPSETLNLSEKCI
T2 sequence (P35408 whole entry): as above
T1 sequence (P43116 whole entry): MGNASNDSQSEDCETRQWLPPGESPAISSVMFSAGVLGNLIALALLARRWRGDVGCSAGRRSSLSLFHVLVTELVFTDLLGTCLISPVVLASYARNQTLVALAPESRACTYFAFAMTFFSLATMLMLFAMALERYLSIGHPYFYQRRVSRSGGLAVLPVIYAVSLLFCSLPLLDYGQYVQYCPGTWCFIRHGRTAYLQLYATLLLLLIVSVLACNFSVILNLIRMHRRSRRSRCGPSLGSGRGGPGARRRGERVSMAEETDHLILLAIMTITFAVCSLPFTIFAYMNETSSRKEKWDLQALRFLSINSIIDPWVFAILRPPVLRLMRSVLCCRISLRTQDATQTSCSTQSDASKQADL
T5 sequence (P43116 whole entry): as above
T6 sequence (P43116 whole entry): as above

CCC(O)c1ccc(N2C(=O)CC[C@@H]2COCc2ccc(C(=O)O)s2)cc1 (stereo partly drawn)
Ki (human EP2 receptors): 5730 nM
EC50 (hEP4/Gqs5): > 10000 nM
Ki (EP4 receptors): > 10000 nM
EC50 (hDP/Gqs5; [2]): 7560 nM
EC50 (hEP2/Gqs5; [3]): 1810 nM
EC50 [1]: 312 nM

CCCCCC(O)c1ccc(N2C(=O)CC[C@@H]2COCc2ccc(C(=O)O)s2)cc1 (stereo partly drawn)
Ki (human EP2 receptors): 115 nM
EC50 (hEP4/Gqs5): > 10000 nM
Ki (EP4 receptors): > 10000 nM
EC50 (hDP/Gqs5; [2]): 3230 nM
EC50 (hEP2/Gqs5; [3]): 8 nM

CCCC1([C@@H](O)c2cccc([C@H]3CCC(=O)[C@@H]3C/C=C\CCCC(=O)OC)c2)CCC1
EC50 (hTP): > 10000 nM

COC(=O)CCCCCC[C@H]1C(=O)CC[C@@H]1c1ccc(C(O)C2CCCCC2)cc1 (stereo partly drawn)
EC50 (hTP): > 10000 nM
EC50 (hEP2/Gqs5; read-out: FUNCTIONAL Ca2+ EC50 HEP2): > 10000 nM

CCCCCCC(O)c1ccc(N2C(=O)CC[C@@H]2COCc2ccc(C(=O)O)s2)cc1 (stereo partly drawn) [drawing 141]
Ki (human EP2 receptors): 190 nM
Ki (EP4 receptors): > 10000 nM
EC50 (hDP/Gqs5; [2]): 5760 nM
EC50 (hEP2/Gqs5; [3]): 20 nM
EC50 [1]: 1.5 nM

CCCCCCC(O)c1ccc(N2C(=O)CC[C@@H]2CCCc2ccc(C(=O)O)s2)cc1 (stereo partly drawn) [drawing 154]
EC50 (hEP4/Gqs5): > 10000 nM
EC50 (hEP3A/Gqi5): 47 nM
EC50 (hDP/Gqs5; [2]): 105 nM
EC50 (hEP2/Gqs5; [3]): 30 nM

CCCCCCC(O)c1ccc(N2C(=O)CC[C@@H]2COCc2ccc(C(=O)O)s2)cc1 (stereo partly drawn) [drawing 169]
Ki (human EP2 receptors): 190 nM
Ki (EP4 receptors): > 10000 nM
EC50 (hDP/Gqs5; [2]): 5760 nM
EC50 (hEP2/Gqs5; [3]): 20 nM
EC50 [1]: 1.5 nM

CCCCCCC(O)c1ccc(N2C(=O)CC[C@@H]2CCCc2ccc(C(=O)O)s2)cc1 (stereo partly drawn) [drawing 182]
EC50 (hEP4/Gqs5): > 10000 nM
EC50 (hEP3A/Gqi5): 47 nM
EC50 (hDP/Gqs5; [2]): 105 nM
EC50 (hEP2/Gqs5; [3]): 30 nM

CCCC1([C@@H](O)c2ccc([C@H]3CCC(=O)[C@@H]3C/C=C\CCCC(=O)O)cc2)CCC1 [drawing 191]
EC50 (hDP/Gqs5; read-out: FUNCTIONAL Ca2+ EC50 HDP): > 10000 nM
